According to US9018214B2, “Bicyclic heterocycle compounds and their uses in therapy” (Astex Therapeutics Limited, priority 2011, dated 2015):
Structures can show the parent of a compound that is named as a salt. Where two headings read alike, the source gives them in different places.

Experiments:
[1] = molecular target: BIR3 domain of human XIAP (residues 252-350) (Homo sapiens (Human), UniProt P98170); test: XIAP in vitro competitive displacement binding assay (fluorescence polarization); details: for IC50: read-out: IC50 or PI Xiap: IC50; for inhibition at 0.04 µM: 1 h, read-out: IC50 or PI Xiap: PI
[2] = molecular target: BIR3 domain of human cIAP-1 (residues 267-363) (Homo sapiens (Human), UniProt Q13490); test: cIAP-1 in vitro competitive displacement binding assay (fluorescence polarization; Probe A AVPIK(5&6FAM)-amide or Probe B AbuRPFK(5&6FAM)-amide); details: for inhibition at […]: 3 h, read-out: IC50 or PI cIAP1: PI
[3] = test system: EVSA-T (human breast carcinoma); test: Anti-proliferative activity, Alamar Blue assay, EVSA-T; format: cell-based; details: Homo sapiens, EVSA-T
[4] = 72 h, read-out: EVSA-T prolif (EC50)
[5] = Probe B AbuRPFK(5&6FAM)-amide, read-out: IC50 or PI cIAP1: IC50
[6] = 72 hours, Alamar Blue, read-out: EVSA-T prolif (EC50)
[7] = read-out: IC50 or PI cIAP1: IC50

IC50 [1] [µM] | IC50 [2, 5] [µM] | EC50 [3, 6] [µM] | Structure (SMILES) | EC50 [3, 4] [µM] | further results
– | 0.014 | 0.19 | C[C@@H]1CN(CC(=O)N2CC(C)(C)c3cnc(Oc4ccccc4Cl)cc32)[C@@H](CN2CCOC2=O)CN1 [Example 189, 3-{[(2R,5R)-1-{2-[6-(2-Chlorophenoxy)-3,3-dimethyl-1H,2H,3H-pyrrolo[3,2-c]pyridin-1-yl]-2-oxoethyl}-5-methylpiperazin-2-yl]methyl}-1,3-oxazolidin-2-one hydrochloride] | – | inhibition at 0.04 µM ([1]; @ 0.04 μM): 70%
– | – | – | CC[C@@H]1COCCN1C[C@H]1CN[C@H](C)CN1CC(=O)N1CC(C)(C)c2ncc(C(F)(F)CC)cc21 [Example 255, 1-[6-(1,1-Difluoropropyl)-3,3-dimethyl-1H,2H,3H-pyrrolo[3,2-b]pyridin-1-yl]-2-[(2R,5R)-2-{[(3R)-3-ethylmorpholin-4-yl]methyl}-5-methylpiperazin-1-yl]ethan-1-one dihydrochloride] | 0.032 | inhibition at 0.04 µM [1]: 49%; IC50 [2]: < 1 µM; IC50 [2, 7]: 0.014 µM
– | – | 0.004 | CCCC(F)(F)c1cc2c(cn1)C(C)(C)CN2C(=O)CN1C[C@@H](C)NC[C@@H]1CN1CCOC[C@H]1C [Example 252, 1-[6-(1,1-Difluorobutyl)-3,3-dimethyl-1H,2H,3H-pyrrolo[3,2-c]pyridin-1-yl]-2-[(2R,5R)-5-methyl-2-{[(3R)-3-methylmorpholin-4-yl]methyl}piperazin-1-yl]ethan-1-one diydrochloride] | – | inhibition at 0.04 µM ([1]; @ 0.04 μM): 72%; inhibition at […] ([2]; Probe B, @ 0.012 μM): 91%
– | – | – | C[C@@H]1CN(CC(=O)N2CC(C)(C)c3cnc(Oc4ccccc4Cl)cc32)[C@@H](C(=O)N2CCOCC2)CN1 [Example 165, 1-[6-(2-Chlorophenoxy)-3,3-dimethyl-1H,2H,3H-pyrrolo[3,2-c]pyridin-1-yl]-2-[(2R,5R)-5-methyl-2-[(morpholin-4-yl)carbonyl]piperazin-1-yl]ethan-1-one dihydrochloride] | 0.65 | inhibition at 0.04 µM [1]: 65%; IC50 [2]: < 1 µM; IC50 [2, 7]: 0.014 µM
0.53 | 0.035 | 1.9 | COC[C@H]1CN[C@H](C)CN1CC(=O)N1CC(C)(C)c2cnc(Cc3ccccc3Cl)cc21 [Example 78, 1-{6-[(2-Chlorophenyl)methyl]-3,3-dimethyl-1H,2H,3H-pyrrolo[3,2-c]pyridin-1-yl}-2-[(2R,5R)-2-(methoxy-methyl)-5-methyl-piperazin-1-yl]ethan-1-one hydrochloride salt] | – | –
0.075 | 0.035 | 0.6 | COC[C@H]1CN[C@H](C)CN1CC(=O)N1CC(C)(C)c2cnc(Oc3ccccc3Cl)cc21 [Example 110, 1-[6-(2-Chloro-phenoxy)-3,3-dimethyl-2,3-dihydro-pyrrolo[3,2-c]pyridin-1-yl]-2-((2R,5R)-2-methoxymethyl-5-methyl-piperazin-1-yl)-ethanone, hydrochloride salt] | – | –
0.064 | 0.016 | 0.78 | COC[C@H]1CN[C@H](C)CN1CC(=O)N1CC2(CN(C(C)=O)C2)c2ccc(Cc3ccccc3)cc21 [Example 76, 1-{1-Acetyl-6′-benzyl-1′,2′-dihydrospiro[azetidine-3,3′-indole]-1′-yl}-2-[(2R,5R)-2-(methoxymethyl)-5-methylpiperazin-1-yl]ethan-1-one hydrochloride salt] | – | –
0.076 | – | 0.091 | CCCC(F)(F)c1cc2c(cn1)C(C)(C)CN2C(=O)CN1C[C@@H](C)NC[C@@H]1Cc1nccs1 [Example 233, 1-[6-(1,1-Difluorobutyl)-3,3-dimethyl-1H,2H,3H-pyrrolo[3,2-c]pyridin-1-yl]-2-[(2S,5R)-5-methyl-2-(1,3-thiazol-2-ylmethyl)piperazin-1-yl]ethan-1-one hydrochloride] | – | inhibition at […] ([2]; Probe B, @ 0.012 μM): 62%
0.06 | 0.11 | 1.7 | Cc1cnn(C[C@H]2CN[C@H](C)CN2CC(=O)N2CC3(Cc4ccccc4C3)c3ccc(C#N)cc32)c1 [Example 161, 1′-{2-[(2R,5R)-5-Methyl-2-[(4-methyl-1H-pyrazol-1-yl)methyl]piperazin-1-yl]acetyl}-1,1′,2′,3-tetrahydrospiro[indene-2,3′-indole]-6′-carbonitrile] | – | IC50 [2]: < 1 µM
0.26 | 0.17 | 6.8 | COC[C@H]1CN[C@H](C)CN1CC(=O)N1CC2(Cc3ccccc3C2)c2ccc(Cl)cc21 [Example 120, 1-{6′-Chloro-1,1′,2′,3-tetrahydrospiro[indene-2,3′-indole]-1′-yl}-2-[(2R,5R)-2-(methoxymethyl)-5-methylpiperazin-1-yl]ethan-1-one] | – | –
– | – | 0.026 | C[C@@H]1CN(CC(=O)N2CC(C)(C)c3cnc(C(F)(F)c4ccccc4)cc32)[C@@H](Cn2cc(F)cn2)CN1 [Example 176, 1-{6-[Difluoro(phenyl)methyl]-3,3-dimethyl-1H,2H,3H-pyrrolo[3,2-c]pyridin-1-yl}-2-[(2R,5R)-2-[(4-fluoro-1H-pyrazol-1-yl)methyl]-5-methylpiperazin-1-yl]ethan-1-one hydrochloride] | – | inhibition at 0.04 µM ([1]; @ 0.04 μM): 52%; inhibition at […] ([2]; Probe B, @ 0.012 μM): 70%

Structure (SMILES) | IC50 [1] [µM] | IC50 [2, 5] [µM] | EC50 [3, 6] [µM] | EC50 [3, 4] [µM] | further results
C[C@@H]1CN(CC(=O)N2CC(C)(C)c3cnc(Cc4ccc(F)cc4F)cc32)[C@@H](CN2CCOCC2)CN1 [Example 219, 1-{6-[(2,4-Difluorophenyl)methyl]-3,3-dimethyl-1H,2H,3H-pyrrolo[3,2-c]pyridin-1-yl}-2-[(2R,5R)-5-methyl-2-(morpholin-4-ylmethyl)piperazin-1-yl]ethan-1-one dihydrochloride] | 0.053 | – | – | 0.005 | inhibition at […] [2]: 93%
C[C@@H]1CN(CC(=O)N2CC(C)(C)c3cnc(Cc4ccc(F)cc4F)cc32)[C@@H](CN2CC[C@@H](F)C2)CN1 [Example 203, 1-{6-[(2,4-Difluorophenyl)methyl]-3,3-dimethyl-1H,2H,3H-pyrrolo[3,2-c]pyridin-1-yl}-2-[(2R,5R)-2-{[(3R)-3-fluoropyrrolidin-1-yl]methyl}-5-methylpiperazin-1-yl]ethan-1-one dihydrochloride] | 0.073 | – | – | 0.0032 | inhibition at […] [2]: 97%
COC[C@H]1CN[C@H](C)CN1CC(=O)N1CC(C)(C)c2ccc(S(=O)(=O)N(C)C)cc21 [Example 68, 1-[2-((2R,5R)-2-Methoxymethyl-5-methyl-piperazin-1-yl)-acetyl]-3,3-dimethyl-2,3-dihydro-1H-indole-6-sulfonic acid dimethylamide dihydrochloride salt] | 0.23 | – | – | 6.4 | IC50 [2, 7]: 1.2 µM; EC50 ([3]; 72 h, read-out: EC50, inhibition of cell growth): < 10 µM
COC[C@H]1CN[C@H](C)CN1CC(=O)N1CC(C)(C)c2cnc(C3CCCCC3)cc21 [Example 118, 1-{6-Cyclohexyl-3,3-dimethyl-1H,2H,3H-pyrrolo[3,2-c]pyridin-1-yl}-2-[(2R,5R)-2-(methoxymethyl)-5-methylpiperazin-1-yl]ethan-1-one dihydrochloride] | 0.71 | – | – | 3.4 | IC50 [2, 7]: 0.24 µM
C[C@@H]1CN(CC(=O)N2CC(C)(C)c3ncc(Cc4ccc(F)cc4F)cc32)[C@@H](CN2CCOC[C@H]2C)CN1 [Example 264, 1-[6-(2,4-Difluoro-benzyl)-3,3-dimethyl-2,3-dihydro-pyrrolo[3,2-b]pyridin-1-yl]-2-[(2R,5R)-5-methyl-2-((R)-3-methyl-morpholin-4-ylmethyl)-piperazin-1-yl]-ethanone, dihydrochloride] | – | – | 0.001 | – | inhibition at 0.04 µM [1]: 68%; inhibition at […] [2]: 98%
